Reference: ChEMBL document CHEMBL3102771, “Regioselective synthesis of 3-benzyl substituted pyrimidino chromen-2-ones and evaluation of anti-microbial and anti-biofilm activities” (2014)
In brackets after ≈: the same amount, converted by molar mass. Activity calls are given as the source filed them. The calls are words filed in the database; no cut-off is given here.

Legend:
Assay type in all cases: functional
Pseudomonas aeruginosa [1] = test: Antimicrobial activity against Pseudomonas aeruginosa MTCC 2453 assessed as growth inhibition after 24 hrs by well diffusion method; conditions: MTCC 2453, 24 h
Staphylococcus aureus [2] = test: Antimicrobial activity against Staphylococcus aureus MLS-16 MTCC 2940 assessed as growth inhibition after 24 hrs by well diffusion method; conditions: MLS-16 MTCC 2940, 24 h
Pseudomonas aeruginosa [3] = test: Antibiofilm activity against Pseudomonas aeruginosa MTCC 2453 after 24 hrs by crystal violet staining technique
Bacillus subtilis = test: Antimicrobial activity against Bacillus subtilis MTCC 121 assessed as growth inhibition after 24 hrs by well diffusion method; conditions: MTCC 121, 24 h
Staphylococcus aureus [4] = test: Antibiofilm activity against Staphylococcus aureus MTCC 96 after 24 hrs by crystal violet staining technique
Micrococcus luteus = test: Antimicrobial activity against Micrococcus luteus MTCC 2470 assessed as growth inhibition after 24 hrs by well diffusion method; conditions: MTCC 2470, 24 h
Staphylococcus aureus [5] = test: Antimicrobial activity against Staphylococcus aureus MTCC 96 assessed as growth inhibition after 24 hrs by well diffusion method; conditions: MTCC 96, 24 h
Staphylococcus aureus [6] = test: Antibiofilm activity against Staphylococcus aureus MLS-16 MTCC 2940 after 24 hrs by crystal violet staining technique

Compound | MIC (Pseudomonas aeruginosa [1]) | MIC (Staphylococcus aureus [2]) | MBEC (Pseudomonas aeruginosa [3]) | MIC (Bacillus subtilis) | MBEC (Staphylococcus aureus [4]) | MIC (Micrococcus luteus) | MIC (Staphylococcus aureus [5]) | MBEC (Staphylococcus aureus [6])
O=C(O)c1cn(C2CC2)c2cc(N3CCNCC3)c(F)cc2c1=O [CIPROFLOXACIN] | 0.58 µg/mL (≈ 1.75 µM) | 0.58 µg/mL (≈ 1.75 µM) | 4 µg/mL | 0.58 µg/mL (≈ 1.75 µM) | 4 µg/mL | 0.58 µg/mL (≈ 1.75 µM) | 0.58 µg/mL (≈ 1.75 µM) | 4 µg/mL
Cc1cc(O)c(C(c2c(N)n(C)c(=O)n(C)c2=O)C2CCCCC2)c(=O)o1 (stereo unspecified) | > 150 µg/mL | > 150 µg/mL |  | 150 µg/mL (≈ 400 µM) |  | > 150 µg/mL | > 150 µg/mL | 
CCCC(c1c(O)c2cc(C)ccc2oc1=O)c1c(N)n(C)c(=O)n(C)c1=O (stereo unspecified) | > 150 µg/mL | 75 µg/mL (≈ 195 µM) |  | 18.8 µg/mL (≈ 48.6 µM) |  | 75 µg/mL (≈ 195 µM) | 75 µg/mL (≈ 195 µM) | 
COc1ccc(-c2nn(-c3ccccc3)cc2C(c2c(O)c3cc(F)ccc3oc2=O)c2c(N)n(C)c(=O)n(C)c2=O)cc1 (stereo unspecified) | > 150 µg/mL | > 150 µg/mL | inactive | 2.34 µg/mL (≈ 3.93 µM) | 10 µg/mL | 2.34 µg/mL (≈ 3.93 µM) | 4.68 µg/mL (≈ 7.86 µM) | inactive
Cc1ccc2oc(=O)c(C(c3ccc(C(C)C)cc3)c3c(N)n(C)c(=O)n(C)c3=O)c(O)c2c1 (stereo unspecified) | > 150 µg/mL | 150 µg/mL (≈ 325 µM) |  | 9.37 µg/mL (≈ 20.3 µM) |  | 75 µg/mL (≈ 163 µM) | > 150 µg/mL | 
Cn1c(N)c(C(c2ccc(C(F)(F)F)cc2)c2c(O)c3ccc4ccccc4c3oc2=O)c(=O)n(C)c1=O (stereo unspecified) | > 150 µg/mL | 2.34 µg/mL (≈ 4.47 µM) | inactive | 9.37 µg/mL (≈ 17.9 µM) | 10 µg/mL | 18.8 µg/mL (≈ 35.8 µM) | 9.37 µg/mL (≈ 17.9 µM) | 10 µg/mL
Cc1ccc2oc(=O)c(C(c3cn(-c4ccccc4)nc3-c3ccccc3)c3c(N)n(C)c(=O)n(C)c3=O)c(O)c2c1 (stereo unspecified) | > 150 µg/mL | > 150 µg/mL | inactive | 2.34 µg/mL (≈ 4.17 µM) | 10 µg/mL | 2.34 µg/mL (≈ 4.17 µM) | 4.68 µg/mL (≈ 8.33 µM) | inactive
Cn1c(N)c(C(c2ccc(C#N)cc2)c2c(O)c3ccc4ccccc4c3oc2=O)c(=O)n(C)c1=O (stereo unspecified) | > 150 µg/mL | 37.5 µg/mL (≈ 78 µM) |  | 37.5 µg/mL (≈ 78 µM) |  | 150 µg/mL (≈ 312 µM) | > 150 µg/mL | 
Cn1c(N)c(C(c2ccc(C#N)cc2)c2c(O)c3cc(F)ccc3oc2=O)c(=O)n(C)c1=O (stereo unspecified) | > 150 µg/mL | 75 µg/mL (≈ 167 µM) |  | 75 µg/mL (≈ 167 µM) |  | > 150 µg/mL | 75 µg/mL (≈ 167 µM) | 
Cn1c(N)c(C(c2cn(-c3ccccc3)nc2-c2ccc([N+](=O)[O-])cc2)c2c(O)c3cc(F)ccc3oc2=O)c(=O)n(C)c1=O (stereo unspecified) | > 150 µg/mL | > 150 µg/mL | inactive | 2.34 µg/mL (≈ 3.83 µM) | 10 µg/mL | 2.34 µg/mL (≈ 3.83 µM) | 4.68 µg/mL (≈ 7.67 µM) | inactive
Cc1ccc(-c2nn(-c3ccccc3)cc2C(c2c(O)c3cc(F)ccc3oc2=O)c2c(N)n(C)c(=O)n(C)c2=O)cc1 (stereo unspecified) | > 150 µg/mL | > 150 µg/mL | inactive | 1.17 µg/mL (≈ 2.02 µM) | 4 µg/mL | 0.58 µg/mL (≈ 1 µM) | 2.34 µg/mL (≈ 4.04 µM) | inactive
Cc1cc(O)c(C(c2ccc(C(F)(F)F)cc2)c2c(N)n(C)c(=O)n(C)c2=O)c(=O)o1 (stereo unspecified) | > 150 µg/mL | > 150 µg/mL |  | 150 µg/mL (≈ 343 µM) |  | > 150 µg/mL | > 150 µg/mL | 
Cn1c(N)c(C(c2cn(-c3ccccc3)nc2-c2ccccc2)c2c(O)c3cc(F)ccc3oc2=O)c(=O)n(C)c1=O (stereo unspecified) | > 150 µg/mL | 1.17 µg/mL (≈ 2.07 µM) | inactive | 4.68 µg/mL (≈ 8.27 µM) | 10 µg/mL | 2.34 µg/mL (≈ 4.14 µM) | 2.34 µg/mL (≈ 4.14 µM) | 4 µg/mL
COc1ccc(C(c2c(O)c3ccc4ccccc4c3oc2=O)c2c(N)n(C)c(=O)n(C)c2=O)cc1OC (stereo unspecified) | > 150 µg/mL | 9.37 µg/mL (≈ 18.2 µM) |  | 18.8 µg/mL (≈ 36.4 µM) |  | > 150 µg/mL | > 150 µg/mL | 
COc1ccc(C(c2c(O)c3cc(C)ccc3oc2=O)c2c(N)n(C)c(=O)n(C)c2=O)cc1 (stereo unspecified) | > 150 µg/mL | 75 µg/mL (≈ 167 µM) |  | 75 µg/mL (≈ 167 µM) |  | 75 µg/mL (≈ 167 µM) | > 150 µg/mL | 
COc1cc(C(c2c(O)c3cc(F)ccc3oc2=O)c2c(N)n(C)c(=O)n(C)c2=O)cc(OC)c1O (stereo unspecified) | > 150 µg/mL | 37.5 µg/mL (≈ 75.1 µM) |  | > 150 µg/mL |  | 18.8 µg/mL (≈ 37.5 µM) | > 150 µg/mL | 
Cn1c(N)c(C(c2cn(-c3ccccc3)nc2-c2ccc(Cl)cc2)c2c(O)c3cc(F)ccc3oc2=O)c(=O)n(C)c1=O (stereo unspecified) | > 150 µg/mL | > 150 µg/mL | inactive | 1.17 µg/mL (≈ 1.95 µM) | 4 µg/mL | 0.58 µg/mL (≈ 0.967 µM) | 1.17 µg/mL (≈ 1.95 µM) | inactive
Cc1ccc2oc(=O)c(C(c3ccc(F)cc3)c3c(N)n(C)c(=O)n(C)c3=O)c(O)c2c1 (stereo unspecified) | > 150 µg/mL | 150 µg/mL (≈ 343 µM) |  | 37.5 µg/mL (≈ 85.7 µM) |  | > 150 µg/mL | > 150 µg/mL | 
Cc1ccc2oc(=O)c(C(c3ccc(C(F)(F)F)cc3)c3c(N)n(C)c(=O)n(C)c3=O)c(O)c2c1 (stereo unspecified) | 9.37 µg/mL (≈ 19.2 µM) | 18.8 µg/mL (≈ 38.5 µM) | 20 µg/mL | 9.37 µg/mL (≈ 19.2 µM) | inactive | 18.8 µg/mL (≈ 38.5 µM) | > 150 µg/mL | 20 µg/mL
COc1ccc(-c2nn(-c3ccccc3)cc2C(c2c(O)c3cc(C)ccc3oc2=O)c2c(N)n(C)c(=O)n(C)c2=O)cc1 (stereo unspecified) | > 150 µg/mL | > 150 µg/mL | inactive | 2.34 µg/mL (≈ 3.96 µM) | 10 µg/mL | 2.34 µg/mL (≈ 3.96 µM) | 4.68 µg/mL (≈ 7.91 µM) | inactive
Cc1ccc2oc(=O)c(C(c3ccc(C#N)cc3)c3c(N)n(C)c(=O)n(C)c3=O)c(O)c2c1 (stereo unspecified) | > 150 µg/mL | 150 µg/mL (≈ 337 µM) |  | > 150 µg/mL |  | > 150 µg/mL | > 150 µg/mL | 
CCOc1cc(C(c2c(O)c3cc(C)ccc3oc2=O)c2c(N)n(C)c(=O)n(C)c2=O)ccc1O (stereo unspecified) | 9.37 µg/mL (≈ 19.5 µM) | 9.37 µg/mL (≈ 19.5 µM) | 20 µg/mL | 9.37 µg/mL (≈ 19.5 µM) | inactive | 9.37 µg/mL (≈ 19.5 µM) | 75 µg/mL (≈ 156 µM) | 10 µg/mL
COc1cc(C(c2c(O)c3cc(F)ccc3oc2=O)c2c(N)n(C)c(=O)n(C)c2=O)ccc1O (stereo unspecified) | > 150 µg/mL | 37.5 µg/mL (≈ 79.9 µM) | inactive | 9.37 µg/mL (≈ 20 µM) | inactive | 9.37 µg/mL (≈ 20 µM) | 75 µg/mL (≈ 160 µM) | 40 µg/mL
